# Several values for one entry are separate records, joined by “and”; a condition that tells them apart may be missing. Identical values can stand only once.
# Tests used:
# [1] = test system: Total P53, MDM2, P21, AKR1C3 proteins in H460 P53 KO cells; assay: WB detection, presence and absence of Nutlin-3; assay type: cell-based, human; details: H460 P53 KO cells (#1, #7, #8, #12), 5 µM Nutlin-3, 24h, compared to H460 wild-type DMSO group (Figures 29, 30)
# Procedure: • 1) H460 and H460 P53 KO cell suspensions were added to a 24-well plate, with a cell density of 100000 /well and 995 µL of medium per well. • 2) The cells were cultured overnight in an incubator at 37°C, 5% CO2. • 3) Compound Treatment
# After 24 hours of cell plating, according to the protocol, each cell line experiment was grouped as: H460 WT untreated group, H460 P53 KO # 1 untreated group, H460 P53 KO # 7 untreated group, H460 P53 KO # 8 untreated group, H460 P53 KO # 12 untreated group, H460 WT 0.1% DMSO treated group, H460 WT 5 µM Nutlin-3 treated group, H460 P53 KO # 1 5 µM Nutlin-3 treated group, H460 P53 KO # 7 5 µM Nutlin-3 treated group, H460 P53 KO # 8 5 µM Nutlin-3 treated group, H460 P53 KO # 12 5 µM Nutlin-3 treated group. […]
# • 1) The cell plates were taken back, the medium supernatant was discarded, and the plates were gently rinsed with PBS. […] The cells were scraped off with a cell scraper, lysed on ice for 30 min, and centrifuged at 14000 rpm and 4°C for 10 min. • 2) Protein quantification was performed using the BCA method. […] Solutions A and B of the ECL luminescence solution (SuperSignal West Femto Maximum Sensitivity) were mixed and added to the membrane dried away from water. […]
# [2] = test system: liver cancer; assay: Phase II clinical trial of AST-3424 (CTR20191399); assay type: in vivo, human
# Text: The clinical trial registration number is CTR20191399.
# • 1. Male or female, aged ≥18 years old. • 2. Histopathologically confirmed advanced HCC that cannot be controlled by surgical resection or local therapy. • 3. History of prior standard systemic therapy including, but not limited to, Sorafenib and/or Oxaliplatin-based systemic chemotherapy, Lenvatinib, Regorafenib and/or Nivolumab, who have experienced disease progression, toxicity intolerance, or refusal to continue treatment with these drugs. • 4. At least one measurable lesion meeting RECIST 1.1 criteria. A lesion with a history of prior radiation therapy shall not be regarded as the measurable lesion unless a definite radiological progression is observed after radiation therapy. • 5. […] Eastern Cooperative Oncology Group (ECOG) performance status score of 0 or 1. • 7. Expected survival time ≥ 12 weeks. • 8. With or without HBV or HCV infection. a. For subjects with HBV infection, HBV-DNA level shall be <2,000 IU/ml, and antiviral therapy with entecavir, tenofovir disoproxil fumarate, or tenofovir alafenamide fumarate shall be administered according to the national guidelines for the prevention and treatment of chronic hepatitis B. The therapy shall be maintained during the study and continued for 6 months after the last dose of the study drug. b. For subjects with HCV infection (in the presence of detectable HCV-RNA or anti-HCV antibodies), treatment may be conducted according to medical practice. • 9. Child-Pugh score ≤ 6 points. • 10. No history of hepatic encephalopathy. • 11. Prior to the initiation of the study drug, all toxicities from previous anticancer therapies (except alopecia, fatigue, or peripheral neuropathy) shall have returned to Grade 1 or baseline levels (NCI CTCAE Version 5). • 12. Subject's laboratory tests shall meet the following criteria. During 14 days before screening laboratory tests, no correction of indicators by blood transfusion, hematopoietic growth factor infusion or albumin infusion is allowed to meet the inclusion criteria: a. Hemoglobin ≥ 90 g/L; b. Platelet count ≥ 80 × 10^9/L; c. Absolute neutrophil count (ANC) ≥ 1.5 × 10^9/L; d. Serum total bilirubin ≤ 3 mg/dL; E. ALT and AST ≤ 5.0 × ULN; f. International normalized ratio (INR) ≤ 2.3 or prothrombin time prolongation ≤ 6 seconds; g. Albumin ≥ 29 g/L; h. Creatinine clearance > 50 mL/min as measured according to the Cockcroft-Gault equation. • 13. No history of alcohol, drug or substance abuse within the past year. • 14. Fertile female subjects shall be in non-lactating and have a negative pregnancy test result within 5 days prior to the initiation of treatment (the subject with a positive urine pregnancy test result needs to be reconfirmed by a serum pregnancy test). • 15. Fertile female and male subjects shall agree to use effective contraceptive measures (e.g. surgical sterilization or condom or diaphragm contraception combined with spermicidal gel or intrauterine contraceptive device [IUD], etc.) with their partners from the start of study participation until 6 months after the last dose of the study drug. • 16. Voluntary participation in this study, fully understanding of the relevant risks, good compliance, and signing the informed consent. Subjects may also sign an informed consent form for future biomedical research (FBR). However, the subjects who would not participate in FBR are still allowed participate in the main trial.
# • 1. Untreated active central nervous system (CNS) metastases or leptomeningeal disease. Subjects with CNS metastases that have been adequately treated and confirmed to be stable for at least 4 weeks during screening by clinical tests and brain imaging (MRI or CT) are allowed to participate in the study. • 2. […]
# [3] = test system: p53, Rad51, MDM2 and p21 proteins in HPAF-II cells; assay: WB detection of p53 pathway proteins in p53 mutant cells; assay type: cell-based; details: 60 nM AST, 8 µM Nutlin-3, 24 hours (Figure 23)
# Procedure: • 1)HPAF-II cell suspension was added to a 24-well plate, with a cell density of 300000 /well and 995 µL of medium per well. • 2) The cells were cultured overnight in an incubator at 37°C, 5% CO2. • 3) Compound treatment. After 24 hours of cell plating, the cells were grouped and dosed according to different cells.
# HPAF-II were grouped as: 1% DMSO treated group, 60nM AST treated group, 8 µM Nutlin-3 treated group, AST 60nM + Nutlin-3 8 µM treated group.
# Monotherapy: After 24 hours of cell plating, each well was supplied with 5µL of test compounds at different concentrations: 1% DMSO, AST 1.5nM, Nutlin-3 1µM, AST 60nM and Nutlin-3 8µM, shaken gently to ensure even mixing, and then placed at 37°C, 5% CO2 in an incubator.
# Combination therapy: After 24 hours of cell plating, each well was supplied with 5µL of 1µM Nutlin-3 and Nutlin-3 8µM respectively for pre-treatment four 2 hours. Then the corresponding cells were added with […] of 1.5nM AST and 60nM AST, shaken gently to ensure even mixing, and then placed at 37°C, 5% CO2 in an incubator.
# 4) After incubating the 24-well plates in a 37°C, 5% CO2 incubator for 24 hours, the cell protein lysate was collected for WB detection, and the WB detection results were shown in Figure 23. […]
# [4] = 8 subjects who completed efficacy evaluation, liver cancer, 6 mg/m^2 day 1 and day 8 of 21-day cycle, as of July 21, 2023
# [5] = subgroup of 4 cases negative (-) for p53 gene mutation or defect, liver cancer, 6 mg/m^2 day 1 and day 8 of 21-day cycle, as of July 21, 2023
structure (smiles),measurement,setting,value
COc1ccc(C2=NC(c3ccc(Cl)cc3)C(c3ccc(Cl)cc3)N2C(=O)N2CCNC(=O)C2)c(OC(C)C)c1 (racemic) [Nutlin-3],"expressions of MDM2, P53, P21 and AKR1C3 proteins (WB)",[1],not upregulated
C[C@H](OP(=O)(N1CC1)N1CC1)c1ccc([N+](=O)[O-])c(Oc2cccc(C(=O)N(C)C)c2)c1 [AST-3424],overall DCR,"[2]; 8 evaluated liver cancer subjects, 6 mg/m^2 day 1 and day 8 of 21-day cycle, as of July 21, 2023",75%
same,subjects achieved PD,[2]; [4],25%
same,subjects achieved PR,[2]; [4],12.5%
same,subjects achieved SD,[2]; [4],62.5%
same,ORR,"[2]; overall, 8 evaluated liver cancer subjects, 6 mg/m^2 day 1 and day 8 of 21-day cycle, as of July 21, 2023",12.5%
same,Efficacy evaluation,"[2]; per case, 3 subjects with positive P53 mutation, unclear in whether it affects protein expression (VUS) (Table 10), as of March 11, 2024","SD, lesion increase"
same,PFS,"[2]; per case, 8 P53 mutation-positive (MUT) subjects (Table 8), 6 mg/m^2 day 1 and day 8 of 21-day cycle, as of March 11, 2024",1.4 months and 1.6 months and 1.5 months and 1.2 months
same,DCR,[2]; [5],75%
same,ORR,[2]; [5],25%
same,DCR,"[2]; subgroup of 4 cases positive (+) for p53 gene mutation or defect, liver cancer, 6 mg/m^2 day 1 and day 8 of 21-day cycle, as of July 21, 2023",75%
O=[N+]([O-])c1ccc(C(OP(=O)(N2CC2)N2CC2)C(F)(F)F)cc1Oc1ccc(-c2ccc(F)cc2)c(F)c1 (stereo not shown) [AST],expression of RAD51 protein (WB),[3],promoted the expression of RAD51 protein
same,"expression of p53, its downstream proteins p21 and MDM2 (WB)",[3],no effect

# From patent EP4755396A1, “TREATMENT OF P53 GENE MUTATION OR DEFECT NEGATIVE CANCER AND TUMOR PATIENTS” (Ascentawits Pharmaceuticals, Ltd., priority 2023, dated 2025)
